Experimental data from patent US9814759B2, “Pharmaceutical composition comprising recombinant hemoglobin protein or subunit-based therapeutic agent for cancer targeting treatment” (Cheer Global Ltd., priority 2014, dated 2017).

How the values were obtained:
[1] = HPLC analysis of disulfide bond cleavage under reducing condition (GSH); format: physicochemical; settings: PBS buffer (pH 7.4), 37° C., GSH 0.4-1000 equiv, 0-2 hrs
Excerpt: The glutathione (GSH) level is much higher in the cytoplasm of cancer cells (˜1000 equiv) when compared to blood stream (˜1 equiv). A therapeutic drug with a disulfide bond can be cleaved much more easily in the cytoplasm of cancer cells with high concentration of GSH. A high-performance liquid chromatography (HPLC) analysis for the cleavage of model compound (N-(2-mercaptoethyl)benzamide) with disulfide bond under reducing condition is shown in FIG. 12. The cleavage of model compound is observed in PBS buffer (pH 7.4) at 37° C. with different concentration of glutathione (GSH) (0.4-1000 equiv). […] In the present invention, the recombinant hemoglobin protein or recombinant hemoglobin tetramer or dimer or subunit linked with a therapeutic drug (e.g. chemotherapeutic agent, radiotherapeutic agent, anti-cancer protein drug) by a disulfide bond is prepared for cancer treatment.

[2] = native human hemoglobin, comparison value; cited from earlier work
[3] = tested on: liver cancer cells (HepG2); assay: Live cell time-lapse microscopy, uptake of fluorescent labeled hemoglobin subunits in cancer cells; format: cell-based; settings: with heme (+) or without heme (−), 0.1% O2, FIG. 10
Excerpt: The pharmaceutical composition of the present invention comprises recombinant hemoglobin protein or recombinant hemoglobin tetramer or dimer or subunit-based therapeutic agent capable of both targeting and killing the cancer cells. […] The fluorescent labeled recombinant hemoglobin subunits can also enter into the cancer cells (e.g., liver cancer cells, HepG2) and localize in there, and the result is illustrated in FIG. 10. It is expected that the chemically modified recombinant hemoglobin protein or tetramer or dimer or subunit-based therapeutic agent can also kill the cancer cells and progenitor cells/cancer stem cells effectively.
Cancer cells (HepG2) are cultured in DMEM (Invitrogen) with 10% Fetal bovine serum (FBS), 100 U/mL penicillin and 100 μg/mL streptomycin at 37° C. For normoxic condition, cells are incubated with ambient O2 concentration and 5% CO2; for hypoxic condition, cells are incubated with 0.1-0.5% O2 (Quorum FC-7 automatic CO2/O2/N2 gas mixer) and 5% CO2.
Cancer cells (e.g. HepG2 liver cancer cells) are seeded onto glass bottom microwell dishes (MatTek Corporation). Live cells at defined zooms (63×, 20×) are acquired using Zeiss Observer Z1 widefield microscope, equipped with atmospheric/temperature-controlled chamber and motorized stage for multi-positional acquisition. The incubation is performed in an enclosed live cell imaging system purged with 0.1% O2 and 5% CO2 (premixed). Cells are exposed to the fluorescent labeled recombinant hemoglobin subunits (α, β, γ1, γ2); for 15 min prior to the acquisition of images every 3 min for a period of 2 h. Images are deconvolved and compacted into time-lapse movies using the MetaMorph software (Molecular Device).

For `O=C(NCCS)c1ccccc1` [model compound, N-(2-mercaptoethyl)benzamide], the “cleavage of disulfide bond at different GSH levels” value [1] was “better at high concentration of GSH (>50 equiv)”.
In the case of “native human hemoglobin: native human hemoglobin, comparison for p50”, the “p50 value (oxygen partial pressure necessary to produce 50 percent saturation of hemoglobin)” value [2] is listed as 23-30 mm Hg.
In the case of “α: recombinant human hemoglobin monomer α (141 amino acids), with or without heme”, the “entry into / uptake by liver cancer cells” value (from here on “entry into / uptake”) [3] is reported as “can enter into liver cancer cells (HepG2) successfully”.
In the case of “β: recombinant human hemoglobin monomer β (146 amino acids), with or without heme”, the “entry into / uptake” value [3] is reported as “can enter into liver cancer cells (HepG2) successfully”.
In the case of “γ1: recombinant human hemoglobin monomer γ1 (146 amino acids), with or without heme”, the “entry into / uptake” value [3] is reported as “can enter into liver cancer cells (HepG2) successfully”.
With “γ2: recombinant human hemoglobin monomer γ2 (146 amino acids), with or without heme” the “entry into / uptake” value [3] was “can enter into liver cancer cells (HepG2) successfully”.
